The experiment relates to COVID-19 patients with severe pneumonia. Description: Phase 2 clinical study of Reparixin plus standard of care in COVID-19 patients with severe pneumonia. In kind it is in vivo, human. The settings on record: for Composite endpoint, first occurrence (% patients) / Composite endpoint, first occurrence (n patients): oral tablets 1200 mg TID plus standard of care. From the text: A phase 2 clinical study has been conducted to assess efficacy and safety of Reparixin in COVID-19 patients with severe pneumonia.
The patients participating to the trial satisfied the following inclusion criteria: • a) at least one of the following: • respiratory distress, RR≥30 breaths/min without oxygen; • Partial arterial oxygen pressure (PaO2)/Fraction of inspiration O2 (FiO2)>100<300 mmHg (1 mmHg=0.133 kPa). • b) chest imaging confirming lung involvement and inflammation. • c) inflammatory status as documented by at least one of the following: Lactate dehydrogenase (LDH)>normal range, C-reactive protein (CRP)≥100 mg/L or IL-6≥40 pg/mL, serum ferritin ≥900 ng/mL, XDP >20 mcg/mL.
Fourteen patients received the standard of care treatment only (Control group).
Thirty-two patients received Reparixin oral tablets 1200 mg TID in addition to the standard of care treatment (Reparixin group) for a maximum of 21 days.
In both groups, where necessary due to the presence of concomitant pathologies (diabetes, hypertension, cancer etc. . . ), the patients also continued to receive specific treatments for these.
The first occurrence of the composite primary endpoint (at least one of the following events: death, supplemental oxygen requirement, invasive mechanical ventilation use, admission to ICU, and use of a rescue medication for any reason) was evaluated in all the patients and the data obtained are shown in Table 2 below.
The data collected in the clinical trial were analyzed by means of the Kaplan-Meier methodology and the log-rank test was used to test for differences between treatment groups. The Kaplan-Meier method is a well-established method to analyse the patterns of events over time to estimate the probability of being free of event. The form of the estimated “survival curves” is a step function, with steps down occurring at those time points where there are events. As patients have events or are censored (patients who exit the analyses for other reasons than events) the number of patients remaining evaluable in the trial in each of the treatment groups is diminishing. The probabilities of being free of event are, as a consequence, estimated from fewer and fewer patients as time progresses. To give information in relation to this, the number of patients at risk at various time points are provided: these are the numbers of patients still at risk of having their first occurrence of the composite endpoint.

Setting [1] is: Reparixin plus standard of care vs standard of care only.

In the case of `CC(C)Cc1ccc([C@@H](C)C(=O)NS(C)(=O)=O)cc1` [Reparixin, R-(-)-2-(4-isobutylphenyl)propionyl methansulfonamide], the “Composite endpoint, first occurrence (% patients)” value (Day 1, 32 evaluable patients) came out at 9.4%. Also, the “Composite endpoint, first occurrence (n patients)” value (Day 1, 32 evaluable patients, composite = death, supplemental oxygen requirement, invasive mechanical ventilation use, admission to ICU, or rescue medication) amounted to 3. Where the note is “Day 2, 27 evaluable patients”, the “Composite endpoint, first occurrence (% patients)” value stood at 7.4% and the “Composite endpoint, first occurrence (n patients)” value worked out at 2. Further, where the note is “Reparixin group compared to the Control group”, the “Time of recovery of patients” value is on record as “significantly reduced”. Moreover, the “Freedom from composite event over time (Kaplan-Meier, FIG. 1)” value (Reparixin group vs Control group (standard of care only), log-rank test p-value 0.0031) is reported as “statistically significant higher freedom from event”. In addition, the “Progression to more severe respiratory disease” value (Reparixin group vs Control group, shown by incidence of the composite endpoints) was “prevents the progression to more severe respiratory disease”. In addition, under setting [1], the “Days of oxygen use” value is “fewer days of oxygen use” and the “Duration of mechanical ventilation” value was “shorter subsequent duration of mechanical ventilation”. Besides, the Respiratory function entry (patients in the Reparixin group) is recorded as “improved respiratory function”.

Source of the values: patent US12636268B2, “CXCL8 inhibitors for use in the treatment of COVID-19” (Dompe' Farmaceutici SPA, priority 2020, dated 2026).
